Laboratory results: ChEMBL document CHEMBL3414527, “Engineering potent and selective analogues of GpTx-1, a tarantula venom peptide antagonist of the Na(V)1.7 sodium channel” (J Med Chem, 2015)
Bridge positions count the residues as written; N and C are the ends. Peptide text beside a SMILES is read from it.

Legend:
[1] = target: Sodium channel protein type 9 subunit alpha (Homo sapiens, UniProt Q15858); assay: Inhibition of human NaV1.7 at -140 mV holding potential by whole-cell patch clamp assay
[2] = target: Sodium channel protein type 5 subunit alpha (Homo sapiens, UniProt Q14524); assay: Inhibition of human NaV1.5 at -140 mV holding potential by whole-cell patch clamp assay
Sequence of Sodium channel protein type 5 subunit alpha (Q14524 whole entry): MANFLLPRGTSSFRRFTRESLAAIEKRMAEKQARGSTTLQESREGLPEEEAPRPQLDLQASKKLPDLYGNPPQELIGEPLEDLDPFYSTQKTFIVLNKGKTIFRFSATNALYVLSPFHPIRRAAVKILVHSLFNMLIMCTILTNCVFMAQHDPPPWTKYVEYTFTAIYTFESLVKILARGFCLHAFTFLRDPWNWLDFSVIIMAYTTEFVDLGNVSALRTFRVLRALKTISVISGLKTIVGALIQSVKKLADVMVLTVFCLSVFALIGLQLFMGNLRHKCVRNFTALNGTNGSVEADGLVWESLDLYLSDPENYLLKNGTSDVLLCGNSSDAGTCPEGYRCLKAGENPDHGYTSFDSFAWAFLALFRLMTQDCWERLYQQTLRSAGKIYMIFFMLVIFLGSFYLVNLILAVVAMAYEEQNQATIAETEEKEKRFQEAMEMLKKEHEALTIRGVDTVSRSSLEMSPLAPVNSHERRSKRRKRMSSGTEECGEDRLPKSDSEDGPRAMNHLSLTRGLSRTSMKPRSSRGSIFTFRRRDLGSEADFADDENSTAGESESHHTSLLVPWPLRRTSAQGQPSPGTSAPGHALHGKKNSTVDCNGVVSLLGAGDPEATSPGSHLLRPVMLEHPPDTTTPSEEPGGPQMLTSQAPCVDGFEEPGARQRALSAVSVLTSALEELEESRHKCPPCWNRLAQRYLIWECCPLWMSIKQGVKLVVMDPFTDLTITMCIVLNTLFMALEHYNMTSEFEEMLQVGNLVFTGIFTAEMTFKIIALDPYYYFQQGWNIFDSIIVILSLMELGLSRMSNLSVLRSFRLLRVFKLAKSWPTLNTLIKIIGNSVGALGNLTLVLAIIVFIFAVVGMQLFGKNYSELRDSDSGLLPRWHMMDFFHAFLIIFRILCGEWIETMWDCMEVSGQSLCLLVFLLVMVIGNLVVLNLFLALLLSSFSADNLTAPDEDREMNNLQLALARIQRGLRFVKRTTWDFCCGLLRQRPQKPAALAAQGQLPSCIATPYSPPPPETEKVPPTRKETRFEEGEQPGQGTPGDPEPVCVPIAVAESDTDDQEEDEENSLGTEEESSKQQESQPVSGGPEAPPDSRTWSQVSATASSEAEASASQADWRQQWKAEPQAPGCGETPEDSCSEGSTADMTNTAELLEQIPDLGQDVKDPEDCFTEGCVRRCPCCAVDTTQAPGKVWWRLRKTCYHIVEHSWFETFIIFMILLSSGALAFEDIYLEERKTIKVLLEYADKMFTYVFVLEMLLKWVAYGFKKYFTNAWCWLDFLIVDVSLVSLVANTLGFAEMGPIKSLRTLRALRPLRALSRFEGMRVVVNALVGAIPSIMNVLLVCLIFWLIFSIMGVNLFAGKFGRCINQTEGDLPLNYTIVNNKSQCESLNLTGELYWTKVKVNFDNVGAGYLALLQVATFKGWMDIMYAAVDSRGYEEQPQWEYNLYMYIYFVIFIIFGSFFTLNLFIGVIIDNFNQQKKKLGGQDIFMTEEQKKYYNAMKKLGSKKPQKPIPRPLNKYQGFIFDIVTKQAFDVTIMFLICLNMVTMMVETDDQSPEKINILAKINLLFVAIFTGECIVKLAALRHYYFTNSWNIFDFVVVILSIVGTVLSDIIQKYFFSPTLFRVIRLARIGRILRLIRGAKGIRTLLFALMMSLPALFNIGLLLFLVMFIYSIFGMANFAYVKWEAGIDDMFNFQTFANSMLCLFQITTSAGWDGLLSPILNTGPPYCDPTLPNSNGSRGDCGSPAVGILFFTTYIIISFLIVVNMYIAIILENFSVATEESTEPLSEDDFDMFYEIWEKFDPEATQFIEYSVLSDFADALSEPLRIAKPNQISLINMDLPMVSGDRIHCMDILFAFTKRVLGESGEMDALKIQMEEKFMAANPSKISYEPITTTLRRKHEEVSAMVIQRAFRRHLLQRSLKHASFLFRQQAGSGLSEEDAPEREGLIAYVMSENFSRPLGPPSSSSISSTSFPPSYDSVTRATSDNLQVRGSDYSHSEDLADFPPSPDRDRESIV

Sequence of Sodium channel protein type 9 subunit alpha (Q15858 whole entry): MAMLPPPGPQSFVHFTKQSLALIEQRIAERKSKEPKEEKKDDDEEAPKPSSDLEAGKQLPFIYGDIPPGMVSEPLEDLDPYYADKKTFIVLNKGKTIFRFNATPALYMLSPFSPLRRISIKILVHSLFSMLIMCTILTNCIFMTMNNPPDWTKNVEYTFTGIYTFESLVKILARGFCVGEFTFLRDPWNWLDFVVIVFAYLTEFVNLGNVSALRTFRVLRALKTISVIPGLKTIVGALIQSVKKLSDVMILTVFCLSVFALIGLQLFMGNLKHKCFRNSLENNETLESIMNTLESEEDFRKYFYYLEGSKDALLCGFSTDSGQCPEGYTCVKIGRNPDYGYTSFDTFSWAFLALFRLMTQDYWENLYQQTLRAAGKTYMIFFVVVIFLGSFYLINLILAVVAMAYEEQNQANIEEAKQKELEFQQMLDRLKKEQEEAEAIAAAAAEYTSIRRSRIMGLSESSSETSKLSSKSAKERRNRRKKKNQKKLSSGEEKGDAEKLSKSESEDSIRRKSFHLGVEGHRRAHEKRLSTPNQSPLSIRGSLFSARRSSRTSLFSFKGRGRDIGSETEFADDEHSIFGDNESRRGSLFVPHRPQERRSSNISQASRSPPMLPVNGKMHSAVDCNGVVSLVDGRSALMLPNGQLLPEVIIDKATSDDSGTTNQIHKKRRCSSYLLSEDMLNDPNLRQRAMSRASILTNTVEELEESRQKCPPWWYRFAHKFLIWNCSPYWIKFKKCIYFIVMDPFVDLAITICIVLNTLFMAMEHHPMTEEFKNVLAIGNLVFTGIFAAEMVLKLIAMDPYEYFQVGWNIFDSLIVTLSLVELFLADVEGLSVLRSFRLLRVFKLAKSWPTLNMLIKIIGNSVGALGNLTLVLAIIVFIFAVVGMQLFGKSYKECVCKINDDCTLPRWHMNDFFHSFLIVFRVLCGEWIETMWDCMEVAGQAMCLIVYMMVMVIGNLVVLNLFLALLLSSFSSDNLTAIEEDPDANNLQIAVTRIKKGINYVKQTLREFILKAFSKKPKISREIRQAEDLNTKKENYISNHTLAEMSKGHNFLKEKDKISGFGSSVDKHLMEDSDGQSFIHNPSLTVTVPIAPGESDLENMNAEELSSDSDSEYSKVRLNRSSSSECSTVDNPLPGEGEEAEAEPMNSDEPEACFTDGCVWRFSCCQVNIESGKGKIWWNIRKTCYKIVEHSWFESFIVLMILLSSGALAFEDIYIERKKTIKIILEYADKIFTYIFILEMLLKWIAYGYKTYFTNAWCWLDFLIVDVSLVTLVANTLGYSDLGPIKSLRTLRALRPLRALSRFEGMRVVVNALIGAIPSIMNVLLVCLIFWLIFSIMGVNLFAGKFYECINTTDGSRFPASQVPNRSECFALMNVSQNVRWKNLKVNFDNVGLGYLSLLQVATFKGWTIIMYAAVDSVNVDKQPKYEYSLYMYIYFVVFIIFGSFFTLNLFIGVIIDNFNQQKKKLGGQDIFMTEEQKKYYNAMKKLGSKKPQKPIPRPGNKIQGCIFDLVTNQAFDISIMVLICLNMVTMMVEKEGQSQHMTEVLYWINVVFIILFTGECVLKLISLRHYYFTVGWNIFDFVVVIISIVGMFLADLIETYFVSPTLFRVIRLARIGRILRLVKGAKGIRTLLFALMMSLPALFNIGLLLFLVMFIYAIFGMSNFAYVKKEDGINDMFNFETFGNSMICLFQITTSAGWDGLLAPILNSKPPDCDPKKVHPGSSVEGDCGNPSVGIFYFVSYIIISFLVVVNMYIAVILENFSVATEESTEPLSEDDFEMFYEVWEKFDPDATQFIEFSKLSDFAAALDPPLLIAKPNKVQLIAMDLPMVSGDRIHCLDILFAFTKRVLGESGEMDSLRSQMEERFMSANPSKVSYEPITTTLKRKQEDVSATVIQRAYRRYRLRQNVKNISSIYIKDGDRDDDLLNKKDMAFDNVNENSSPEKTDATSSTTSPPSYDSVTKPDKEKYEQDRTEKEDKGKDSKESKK

What does the source list for `CC[C@H](C)[C@@H]1NC(=O)[C@@H]2CSSC[C@@H]3NC(=O)[C@H](C(C)C)NC(=O)[C@H](CC(C)C)NC(=O)[C@H](CC(N)=O)NC(=O)[C@@H]4CCCN4C(=O)[C@H](CCCNC(=N)N)NC(=O)[C@H](CSSC[C@H](NC(=O)[C@@H](N)CC(=O)O)C(=O)N[C@@H](CC(C)C)C(=O)NCC(=O)N[C@@H](Cc4ccccc4)C(=O)N[C@@H](C)C(=O)N[C@@H](CCCNC(=N)N)C(=O)N[C@@H](CCCCN)C(=O)N2)NC(=O)[C@H](CSSC[C@@H](C(=O)N[C@@H](CCCCN)C(=O)N[C@@H](Cc2ccc(O)cc2)C(=O)N[C@H](C(=O)N[C@@H](Cc2ccccc2)C(N)=O)C(C)C)NC(=O)[C@H](Cc2c[nH]c4ccccc24)NC(=O)[C@H](CCCCN)NC(=O)[C@H](Cc2cnc[nH]2)NC(=O)[C@H]([C@@H](C)O)NC(=O)[C@H](CCCNC(=N)N)NC(=O)[C@H](CO)NC3=O)NC(=O)[C@H](CCCCN)NC(=O)[C@H](CC(=O)O)NC(=O)[C@H](CC(N)=O)NC(=O)[C@H](CC(=O)O)NC(=O)[C@@H]2CCCN2C1=O` (H-DCLGFARKCIPDNDKCCRPNLVCSRTHKWCKYVF-NH2; disulfide 2-17, 9-23, 16-30)?
IC50 [1]: 430 nM; IC50 [2]: > 5 µM

`CC[C@H](C)[C@@H]1NC(=O)[C@@H]2CSSC[C@@H]3NC(=O)[C@H](C(C)C)NC(=O)[C@H](CC(C)C)NC(=O)[C@H](CC(N)=O)NC(=O)[C@@H]4CCCN4C(=O)[C@H](CCCNC(=N)N)NC(=O)[C@H](CSSC[C@H](NC(=O)[C@@H](N)CC(=O)O)C(=O)N[C@@H](CC(C)C)C(=O)NCC(=O)N[C@@H](Cc4ccccc4)C(=O)N[C@@H](CC(C)C)C(=O)N[C@@H](CCCNC(=N)N)C(=O)N[C@@H](CCCCN)C(=O)N2)NC(=O)[C@H](CSSC[C@@H](C(=O)N[C@@H](CCCCN)C(=O)N[C@@H](Cc2ccc(O)cc2)C(=O)N[C@H](C(=O)N[C@@H](Cc2ccccc2)C(N)=O)C(C)C)NC(=O)[C@H](Cc2c[nH]c4ccccc24)NC(=O)[C@H](CCCCN)NC(=O)[C@H](Cc2cnc[nH]2)NC(=O)[C@H]([C@@H](C)O)NC(=O)[C@H](CCCNC(=N)N)NC(=O)[C@H](CO)NC3=O)NC(=O)[C@H](CCCCN)NC(=O)[C@H](CC(=O)O)NC(=O)[C@H](CC(N)=O)NC(=O)[C@H](CC(=O)O)NC(=O)[C@@H]2CCCN2C1=O` (H-DCLGFLRKCIPDNDKCCRPNLVCSRTHKWCKYVF-NH2; disulfide 2-17, 9-23, 16-30) was tested. Which IC50 [1] did it give?
Its IC50 is 24 nM.

What about the IC50 [2] of the same compound?
Its IC50 is over 10 µM.

Which results are given for `CC[C@H](C)[C@@H]1NC(=O)[C@@H]2CSSC[C@@H]3NC(=O)[C@H](C(C)C)NC(=O)[C@H](CC(C)C)NC(=O)[C@H](CC(N)=O)NC(=O)[C@@H]4CCCN4C(=O)[C@H](CCCNC(=N)N)NC(=O)[C@H](CSSC[C@H](NC(=O)[C@@H](N)CC(=O)O)C(=O)N[C@@H](CC(C)C)C(=O)NCC(=O)N[C@@H](Cc4ccccc4)C(=O)N[C@@H](CCSC)C(=O)N[C@@H](CCCNC(=N)N)C(=O)N[C@@H](CCCCN)C(=O)N2)NC(=O)[C@H](CSSC[C@@H](C(=O)N[C@@H](CCCCN)C(=O)N[C@@H](Cc2ccc(O)cc2)C(=O)N[C@H](C(=O)N[C@@H](Cc2ccccc2)C(N)=O)C(C)C)NC(=O)[C@H](Cc2c[nH]c4ccccc24)NC(=O)[C@H](CCCCN)NC(=O)[C@H](Cc2cnc[nH]2)NC(=O)[C@H](CCC(=O)O)NC(=O)[C@H](CCCNC(=N)N)NC(=O)[C@H](CO)NC3=O)NC(=O)[C@H](CCCCN)NC(=O)[C@H](CC(=O)O)NC(=O)[C@H](CC(N)=O)NC(=O)[C@H](CC(=O)O)NC(=O)[C@@H]2CCCN2C1=O` (H-DCLGFMRKCIPDNDKCCRPNLVCSREHKWCKYVF-NH2; disulfide 2-17, 9-23, 16-30)?
IC50 [1]: 34 nM; IC50 [2]: > 10 µM

With `CC[C@H](C)[C@@H]1NC(=O)[C@@H]2CSSC[C@@H]3NC(=O)[C@H](C(C)C)NC(=O)[C@H](CC(C)C)NC(=O)[C@H](CC(N)=O)NC(=O)[C@@H]4CCCN4C(=O)[C@H](CCCNC(=N)N)NC(=O)[C@H](CSSC[C@H](NC(=O)[C@@H](N)CC(=O)O)C(=O)N[C@@H](CC(C)C)C(=O)NCC(=O)N[C@@H](Cc4ccccc4)C(=O)N[C@@H](CCSC)C(=O)N[C@@H](CCCNC(=N)N)C(=O)N[C@@H](CCCCN)C(=O)N2)NC(=O)[C@H](CSSC[C@@H](C(=O)N[C@@H](CCCCN)C(=O)N[C@@H](Cc2ccc(O)cc2)C(=O)N[C@H](C(=O)N[C@@H](Cc2ccccc2)C(N)=O)C(C)C)NC(=O)[C@H](Cc2c[nH]c4ccccc24)NC(=O)[C@H](C)NC(=O)[C@H](Cc2cnc[nH]2)NC(=O)[C@H]([C@@H](C)O)NC(=O)[C@H](CCCNC(=N)N)NC(=O)[C@H](CO)NC3=O)NC(=O)[C@H](CCCCN)NC(=O)[C@H](CC(=O)O)NC(=O)[C@H](CC(N)=O)NC(=O)[C@H](CC(=O)O)NC(=O)[C@@H]2CCCN2C1=O` (H-DCLGFMRKCIPDNDKCCRPNLVCSRTHAWCKYVF-NH2; disulfide 2-17, 9-23, 16-30) as the compound, how does the IC50 [1] read?
The IC50 was 470 nM.

What about the IC50 [2] of the same compound?
The IC50 was over 5 µM.

With `CC[C@H](C)[C@@H]1NC(=O)[C@@H]2CSSC[C@@H]3NC(=O)[C@H](C(C)C)NC(=O)[C@H](CC(C)C)NC(=O)[C@H](CC(N)=O)NC(=O)[C@@H]4CCCN4C(=O)[C@H](CCCNC(=N)N)NC(=O)[C@H](CSSC[C@H](NC(=O)[C@@H](N)CC(=O)O)C(=O)N[C@@H](CC(C)C)C(=O)NCC(=O)N[C@@H](Cc4ccc(I)cc4)C(=O)N[C@@H](CCSC)C(=O)N[C@@H](CCCNC(=N)N)C(=O)N[C@@H](CCCCN)C(=O)N2)NC(=O)[C@H](CSSC[C@@H](C(=O)N[C@@H](CCCCN)C(=O)N[C@@H](Cc2ccc(O)cc2)C(=O)N[C@H](C(=O)N[C@@H](Cc2ccccc2)C(N)=O)C(C)C)NC(=O)[C@H](Cc2c[nH]c4ccccc24)NC(=O)[C@H](CCCCN)NC(=O)[C@H](Cc2cnc[nH]2)NC(=O)[C@H]([C@@H](C)O)NC(=O)[C@H](CCCNC(=N)N)NC(=O)[C@H](CO)NC3=O)NC(=O)[C@H](CCCCN)NC(=O)[C@H](CC(=O)O)NC(=O)[C@H](CC(N)=O)NC(=O)[C@H](CC(=O)O)NC(=O)[C@@H]2CCCN2C1=O` as the compound, how does the IC50 [1] read?
Its IC50 is 236 nM.

And the IC50 [2]?
The IC50 was over 10 µM.

What does the source list for `CC[C@H](C)[C@@H]1NC(=O)[C@@H]2CSSC[C@@H]3NC(=O)[C@H](C(C)C)NC(=O)[C@H](CC(C)C)NC(=O)[C@H](CC(N)=O)NC(=O)[C@@H]4CCCN4C(=O)[C@H](CCCNC(=N)N)NC(=O)[C@H](CSSC[C@H](NC(=O)[C@@H](N)CC(=O)O)C(=O)N[C@@H](CC(C)C)C(=O)NCC(=O)N[C@@H](Cc4ccccc4)C(=O)N[C@@H](CCSC)C(=O)N[C@@H](CCCNC(=N)N)C(=O)N[C@@H](CCCCN)C(=O)N2)NC(=O)[C@H](CSSC[C@@H](C(=O)N[C@@H](C)C(=O)N[C@@H](Cc2ccc(O)cc2)C(=O)N[C@H](C(=O)N[C@@H](Cc2ccccc2)C(N)=O)C(C)C)NC(=O)[C@H](Cc2c[nH]c4ccccc24)NC(=O)[C@H](CCCCN)NC(=O)[C@H](Cc2cnc[nH]2)NC(=O)[C@H]([C@@H](C)O)NC(=O)[C@H](CCCNC(=N)N)NC(=O)[C@H](CO)NC3=O)NC(=O)[C@H](CCCCN)NC(=O)[C@H](CC(=O)O)NC(=O)[C@H](CC(N)=O)NC(=O)[C@H](CC(=O)O)NC(=O)[C@@H]2CCCN2C1=O` (H-DCLGFMRKCIPDNDKCCRPNLVCSRTHKWCAYVF-NH2; disulfide 2-17, 9-23, 16-30)?
IC50 [1]: > 5000 nM; IC50 [2]: > 5 µM

For `CC[C@H](C)[C@@H]1NC(=O)[C@@H]2CSSC[C@@H]3NC(=O)[C@H](C(C)C)NC(=O)[C@H](CC(C)C)NC(=O)[C@H](CC(N)=O)NC(=O)[C@@H]4CCCN4C(=O)[C@H](CCCNC(=N)N)NC(=O)[C@H](CSSC[C@H](NC(=O)[C@@H](N)CC(=O)O)C(=O)N[C@@H](CC(C)C)C(=O)NCC(=O)N[C@@H](Cc4ccccc4)C(=O)N[C@@H](CCSC)C(=O)N[C@@H](CCCNC(=N)N)C(=O)N[C@@H](CCCCN)C(=O)N2)NC(=O)[C@H](CSSC[C@@H](C(=O)N[C@@H](CCCCN)C(=O)N[C@@H](Cc2ccc(O)cc2)C(=O)N[C@H](C(=O)N[C@@H](Cc2ccccc2)C(N)=O)C(C)C)NC(=O)[C@H](Cc2c[nH]c4ccccc24)NC(=O)[C@H](CCCCN)NC(=O)[C@H](Cc2cnc[nH]2)NC(=O)[C@H]([C@@H](C)O)NC(=O)[C@H](CCCNC(=N)N)NC(=O)[C@H](CO)NC3=O)NC(=O)[C@H](CCCCN)NC(=O)[C@H](CC(=O)O)NC(=O)[C@H](CC(N)=O)NC(=O)[C@H](CC(=O)O)NC(=O)[C@H](C)NC1=O` (H-DCLGFMRKCIADNDKCCRPNLVCSRTHKWCKYVF-NH2; disulfide 2-17, 9-23, 16-30), which IC50 [1] is on record?
The IC50 was 170 nM.

And the IC50 [2]?
Its IC50 is over 5 µM.

`CC[C@H](C)[C@@H]1NC(=O)[C@@H]2CSSC[C@@H]3NC(=O)[C@H](C(C)C)NC(=O)[C@H](CC(C)C)NC(=O)[C@H](CC(N)=O)NC(=O)[C@@H]4CCCN4C(=O)[C@H](CCCNC(=N)N)NC(=O)[C@H](CSSC[C@H](NC(=O)[C@@H](N)CC(=O)O)C(=O)N[C@@H](CC(C)C)C(=O)NCC(=O)N[C@@H](C(C)C)C(=O)N[C@@H](CCSC)C(=O)N[C@@H](CCCNC(=N)N)C(=O)N[C@@H](CCCCN)C(=O)N2)NC(=O)[C@H](CSSC[C@@H](C(=O)N[C@@H](CCCCN)C(=O)N[C@@H](Cc2ccc(O)cc2)C(=O)N[C@H](C(=O)N[C@@H](Cc2ccccc2)C(N)=O)C(C)C)NC(=O)[C@H](Cc2c[nH]c4ccccc24)NC(=O)[C@H](CCCCN)NC(=O)[C@H](Cc2cnc[nH]2)NC(=O)[C@H]([C@@H](C)O)NC(=O)[C@H](CCCNC(=N)N)NC(=O)[C@H](CO)NC3=O)NC(=O)[C@H](CCCCN)NC(=O)[C@H](CC(=O)O)NC(=O)[C@H](CC(N)=O)NC(=O)[C@H](CC(=O)O)NC(=O)[C@@H]2CCCN2C1=O` (H-DCLGVMRKCIPDNDKCCRPNLVCSRTHKWCKYVF-NH2; disulfide 2-17, 9-23, 16-30) was tested. Which IC50 [1] did it give?
The IC50 was 19 nM.

And the IC50 [2]?
Its IC50 is over 10 µM.
